Where no end group is shown, it is not given here.
Assays:
[1] = system: β-MIN6 cells; assay: Insulin secretion of β-MIN6 cells following glucose induction; format: cell-based, mouse; conditions: IGF-2 5 nM, 20 nM, 80 nM, 1 week treatment
Description: β-MIN6 cells serve as an in vitro model of mouse pancreatic islets. β-MIN6 cells were used as an in vitro model to measure the effects of treatment with IGF-2.

[2] = system: STZ-treated mouse islets; assay: MTT viability of STZ-treated mouse islets; format: cell-based; conditions: increasing concentrations
Description: Yellow dye MTT is converted to a purple dye by mitochondrial reductase in viable cells. Therefore, the amount of purple dye present determined by measuring optical density of cells at 570 nm serves as a measurement of cell viability.

[3] = system: STZ-treated mouse islets; assay: Insulin secretion from STZ-treated mouse islets; format: cell-based; conditions: islets treated with 2.5 mM STZ; IGF-2 50 nM and 500 nM, GLP-1 100 nM and 1000 nM; 48 hours
Procedure: Mouse islet cells were treated with 2.5 mM STZ and subsequently treated with either IGF-2 (FA) at 50 nM and 500 nM, or with GLP-1 at 100 nM and 1000 nM.

[4] = system: db/db mice; assay: Peptide efficacy on type 2 diabetes (db/db mice): pancreas H&E and IHC; format: in vivo
Procedure: Male db/db mice (BKS.Cg-Dock7m+/+Leprdb/J) were administered Peptide 16 and Peptide 20 via intraperitoneal injection once daily for 35 consecutive days. Peptide 16 was administered at a dose of 5.5 mg/kg, while Peptide 20 was administered at 3.9 mg/kg. The control group received saline. Throughout the treatment period, mice were monitored for body weight and behavioral changes. At the end of the study, mice were sacrificed, and blood samples were collected for C-peptide level measurement. The pancreas was harvested for pathological analysis, including hematoxylin and eosin (H&E) staining and immunohistochemistry (IHC). Results appear in FIG. 37. All pancreatic tissue sections were stained with hematoxylin and eosin (H&E). […] Results appear in FIG. 38.

[5] = system: Human pancreatic islets; assay: Peptides efficacy on human pancreatic islets (IHC, digital quantitative pathological analysis); format: cell-based
Procedure: Human pancreatic islets, obtained from Prodo Labs, were cultured in Prodo Labs PIM(S) media and maintained at 37° C. with 5% CO2 to ensure optimal viability. The islets were treated with IGF-2 (500 nM) and Peptide-20 (1000 nM) for five days under continuous exposure. After treatment, islets were collected and fixed in 4% paraformaldehyde (PFA) to preserve cellular and structural integrity. The samples were then processed for formalin-fixed paraffin-embedded (FFPE) histology. Sectioned islets were stained using immunohistochemistry (IHC) with specific markers to assess islet integrity, β-cell function, and proliferation. Microscopic Digital Quantitative Pathological Analysis provided critical insights into the effects of IGF-2 and Peptide-20 on islet structure and function. […] These findings establish Peptide-20 as a strong candidate for novel diabetes therapies aimed at restoring islet function and reversing β-cell loss. […] Their ability to enhance β-cell survival and proliferation positions them as strong candidates for the development of novel regenerative therapies, paving the way for innovative drug development aimed at reversing diabetes and restoring endogenous insulin production.

[6] = system: mice; assay: Blood glucose concentration kinetics of IGF-2 vs. insulin in a glucose tolerance test; format: in vivo
Procedure: IGF-2 therefore provides an effect that mimics insulin within the body, and that effect is referred to herein as an “insulinomimetic” effect. […] More specifically, when 1 unit of insulin per kg was administered, the recovery in glucose levels began after two hours. But when 800 μg/kg of IGF-2 was administered, the recovery in glucose levels began after six hours. […] In this example, administering IGF-2 can provide better results than administering insulin with respect to blood glucose levels, even when only a single dose was used. Without being bound by this theory, it is possible that the IGF-2 combines with a number of binding proteins in the blood and its active free form is then released slowly from the complex.

[7] = Peptide-20 1000 nM for five days

## GLP-1 (HAEGTFTSDVSSYLEGQAAKEFIAWLVKGR; ends and bridges not checked; UniProt P01275 98-127, looked up) [a satiety hormone, comparator in vitro, reference compound]
[1]
  Insulin secretion following glucose induction: does not increase insulin secretion
[2]
  Mouse islet viability (MTT, optical density at 570 nm): did not significantly increase mouse islet viability
[3]
  Insulin secretion: did not significantly increase insulin secretion

## RSRGIVEECCFRICDLALLE [Peptide 20]
[4]; Peptide 20 3.9 mg/kg i.p. once daily for 35 days
  Islets of Langerhans in the pancreas (IHC): regenerating the islets of Langerhans
[4]; i.p. once daily for 35 days, Peptide 16 5.5 mg/kg, Peptide 20 3.9 mg/kg
  Islets of Langerhans in pancreatic tissue sections (H&E): regenerating the islets of Langerhans
[5]; IGF-2 500 nM, Peptide-20 1000 nM, five days
  Pancreatic islet regeneration, integrity and function: enhances human pancreatic islet regeneration and function
[5]; [7]
  Islet area: significant increase
  Total insulin signal intensity: significant increase
  β-cell proliferation: significant increase

## insulin [reference compound]
[6]; glucose tolerance test in mice
  Glucose level after administration: decreased
[6]; insulin 1 unit per kg, IGF-2 800 μg/kg, single dose
  Time after which the recovery in glucose levels began: two
